Here are results for nine compounds from patent US11401271B2, “Fused heterocyclic compound, pyrazole-ring-containing fused heterocyclic compound, agricultural composition containing thereof, and method of using the composition” (SOUTH CHINA AGRICULTURAL UNIVERSITY, priority 2017, dated 2022).

For the first assay, the system named is Plutella xylostella. The assay can be described thus: whole plant or invertebrate. The class given is in vivo. The following applies: Plutella xylostella, read-out: Plutella xylostella Mortality (%) 500 ppm. The method, then: (1) Insecticidal Activity on 2nd-Instar Larvae of Plutella xylostella.
Plutella xylostella (L.) is a lepidoptera pest with a chewing mouthpart and is a common vegetable pest. The 2nd-instar larvae of Plutella xylostella were used as test objects and tested by using a leaf immersion feeding method.
(§1) Operation process: Samples were weighed accurately, and respectively added with 200 μL of dimethyl sulfoxide to prepare 10 g/L mother liquor which was diluted into a concentration of 500 ppm with an aqueous solution containing 0.05% of Tween-80 during the test. A hole puncher with a diameter of 1.0 cm was used to make cleaned cabbage leaves into leaf discs. The leaf discs were immersed in a liquid medicine, taken out after 5 seconds, air-dried naturally, and transferred into a clean vessel. About 35 2nd-instar larvae of Plutella xylostella were put into the vessel and fed at a constant temperature of 28° C. Each concentration was repeated 3 times, and an aqueous solution containing 0.05% of Tween-80 was used as a control group. After being treated for 24 hours, a number of dead Plutella xylostella was counted, and a mortality (%) was calculated according to a formula that mortality (%)=(number of live larvae in the control group−number of treated live larvae)/number of live larvae in the control group*100%.
As to `CSc1nn2c(c1C#N)N(CCBr)C(F)(C(F)(F)F)c1ccccc1-2` (stereo not drawn) [Compound A35], the mortality at 500 ppm is 100%.

For `CCNc1cc2n(n1)-c1cnccc1C(F)(CC(F)(F)F)N2` (stereo not drawn) [Compound A37], the mortality at 500 ppm is 100%.

As to `C=CCN(CC)c1cc2n(n1)-c1cnccc1C(F)(CC(F)(F)F)N2` (stereo not drawn) [Compound A38], the mortality at 500 ppm is 100%.

`CC(=O)Nc1cc2n(n1)-c1cnccc1C(F)(CC(F)(F)F)N2` (stereo not drawn) [Compound A39]: the mortality at 500 ppm came out at 100%.

Consider `CNC(=O)Nc1cc2n(n1)-c1cnccc1C(F)(CC(F)(F)F)N2` (stereo not drawn) [Compound A41], for which the mortality at 500 ppm was 100%.

As to `CS(=O)(=O)Nc1cc2n(n1)-c1cnccc1C(F)(CC(F)(F)F)N2` (stereo not drawn) [Compound A42], the mortality at 500 ppm is 100%.

Take `C=CC1(CCl)Nc2c(Br)c(C#N)nn2-c2c(Cl)cc(C(F)(F)F)cc21` (stereo not drawn) [Compound C5]: the mortality at 500 ppm turned out to be 100%.

For the compound `C=CC1(CC(F)(F)F)Nc2c(Br)c(C#N)nn2-c2c(Cl)cc(C(F)(F)F)cc21` (stereo not drawn) [Compound C6], the mortality at 500 ppm worked out at 100%.

In the case of `C=CC1(C(F)(F)F)Nc2c(Br)c(C#N)nn2-c2c(Cl)cc(C(F)(F)F)cc21` (stereo not drawn) [Compound C7], the mortality at 500 ppm was 100%.

For another assay, the system named is Spodoptera exigua. The assay can be described thus: whole plant or invertebrate. The class given is in vivo. The following applies: Spodoptera exigua, 24 h, read-out: Spodoptera exigua Mortality (%) 500 ppm. Here is the method:
(2) Insecticidal Activity on 2nd-Instar Larvae of Spodoptera exigua.
Spodoptera exigua is a lepidoptera pest with a chewing mouthpart and is a common vegetable pest. The 2nd-instar larvae of Spodoptera exigua were used as test objects and tested by using a leaf immersion feeding method.
as §1, with “μL,” for “μL”, “2nd -instar” for “2nd-instar”, “Spodoptera exigua” for “Plutella xylostella”, “group −number” for “group−number”, “group * 100%.” for “group*100%.”
As for `CSc1nn2c(c1C#N)N(CCBr)C(F)(C(F)(F)F)c1ccccc1-2` (stereo not drawn) [Compound A35], the mortality at 500 ppm is 100%.

With `CCNc1cc2n(n1)-c1cnccc1C(F)(CC(F)(F)F)N2` (stereo not drawn) [Compound A37], the mortality at 500 ppm stood at 100%.

With `C=CCN(CC)c1cc2n(n1)-c1cnccc1C(F)(CC(F)(F)F)N2` (stereo not drawn) [Compound A38], the mortality at 500 ppm stood at 90%.

Consider `CC(=O)Nc1cc2n(n1)-c1cnccc1C(F)(CC(F)(F)F)N2` (stereo not drawn) [Compound A39], for which the mortality at 500 ppm came out at 100%.

On to `CNC(=O)Nc1cc2n(n1)-c1cnccc1C(F)(CC(F)(F)F)N2` (stereo not drawn) [Compound A41], for which the mortality at 500 ppm was determined as 100%.

For `CS(=O)(=O)Nc1cc2n(n1)-c1cnccc1C(F)(CC(F)(F)F)N2` (stereo not drawn) [Compound A42], the mortality at 500 ppm was found to be 100%.

For the compound `C=CC1(CCl)Nc2c(Br)c(C#N)nn2-c2c(Cl)cc(C(F)(F)F)cc21` (stereo not drawn) [Compound C5], the mortality at 500 ppm came to 100%.

As to `C=CC1(CC(F)(F)F)Nc2c(Br)c(C#N)nn2-c2c(Cl)cc(C(F)(F)F)cc21` (stereo not drawn) [Compound C6], the mortality at 500 ppm was 100%.

Take `C=CC1(C(F)(F)F)Nc2c(Br)c(C#N)nn2-c2c(Cl)cc(C(F)(F)F)cc21` (stereo not drawn) [Compound C7]: the mortality at 500 ppm is 100%.

Another assay relates to Aphis craccivora. The assay can be described thus: whole plant or invertebrate. The class given is in vivo. Conditions: Aphis craccivora, 24 h, read-out: Aphis craccivora Mortality (%) 500 ppm. Here is the method:
(3) Insecticidal Activity on Aphid Adults.
Aphid is a homoptera pest with a piercing-sucking mouthpart and is a common vegetable pest. Aphis craccivora were taken as test objects and tested by using an impregnation method.
Operation process: Samples were weighed accurately, and respectively added with 200 μL of dimethyl sulfoxide to prepare 10 g/L mother liquor which was diluted into a concentration of 500 ppm with an aqueous solution containing 0.05% of Tween-80 during the test. After the wingless Aphis craccivora adults stably sucked on bean sprouts, the wingless Aphis craccivora adults together with the bean sprouts were immersed into a liquid medicine with a concentration of 500 ppm, taken out after 5 seconds, air-dried naturally, transferred into a clean vessel, and fed at a constant temperature of 23° C. Each concentration was repeated 3 times, and an aqueous solution containing 0.05% of Tween-80 was used as a control group. After being treated for 24 hours, a number of dead Aphis craccivora was counted, and a mortality (%) was calculated according to a formula that mortality (%)=(number of live Aphis craccivora in the control group−number of treated live Aphis craccivora)/number of live Aphis craccivora in the control group*100%.
In the case of `CSc1nn2c(c1C#N)N(CCBr)C(F)(C(F)(F)F)c1ccccc1-2` (stereo not drawn) [Compound A35], the mortality at 500 ppm was 100%.

For `CCNc1cc2n(n1)-c1cnccc1C(F)(CC(F)(F)F)N2` (stereo not drawn) [Compound A37], the mortality at 500 ppm is 100%.

Consider `C=CCN(CC)c1cc2n(n1)-c1cnccc1C(F)(CC(F)(F)F)N2` (stereo not drawn) [Compound A38], for which the mortality at 500 ppm turned out to be 100%.

`CC(=O)Nc1cc2n(n1)-c1cnccc1C(F)(CC(F)(F)F)N2` (stereo not drawn) [Compound A39]: the mortality at 500 ppm came to 100%.

With `CNC(=O)Nc1cc2n(n1)-c1cnccc1C(F)(CC(F)(F)F)N2` (stereo not drawn) [Compound A41], the mortality at 500 ppm was 100%.

As to `CS(=O)(=O)Nc1cc2n(n1)-c1cnccc1C(F)(CC(F)(F)F)N2` (stereo not drawn) [Compound A42], the mortality at 500 ppm came out at 100%.

For `C=CC1(CCl)Nc2c(Br)c(C#N)nn2-c2c(Cl)cc(C(F)(F)F)cc21` (stereo not drawn) [Compound C5], the mortality at 500 ppm amounted to 100%.

Consider `C=CC1(CC(F)(F)F)Nc2c(Br)c(C#N)nn2-c2c(Cl)cc(C(F)(F)F)cc21` (stereo not drawn) [Compound C6], for which the mortality at 500 ppm came to 100%.

As to `C=CC1(C(F)(F)F)Nc2c(Br)c(C#N)nn2-c2c(Cl)cc(C(F)(F)F)cc21` (stereo not drawn) [Compound C7], the mortality at 500 ppm was 100%.

The next assay deals with Solenopsis invicta. The assay can be described thus: whole plant or invertebrate. The following applies: Solenopsis invicta, 24 h, read-out: Solenopsis invicta Mortality (%) 100 ppm 24 h. The class given is in vivo. The method, then:
(4) Insecticidal Activity on Solenopsis invicta.
As a hymenoptera pests and a social insect, Solenopsis invicta is one of the most destructive invasive organisms. Solenopsis invicta were used as test objects and tested by using a water test tube poison-feeding method.
Operation process: Samples were weighed accurately, and respectively added with 200 μL of dimethyl sulfoxide to prepare 10 g/L mother liquor which was diluted into a concentration of 100 ppm with a mixed aqueous solution containing 0.05% of Tween-80 and 5% of honey during the test. […] The raising test tube was placed in a raising box horizontally, and a small amount of ham sausages were added to the raising test tube as food to raise the Solenopsis invicta at a constant temperature of 25° C. After being treated for 24 hours and 72 hours, a number of live Solenopsis invicta and a number of dead Solenopsis invicta were counted, and a mortality (%) was calculated according to a formula that mortality (%)=(number of live Solenopsis invicta in the control group−number of treated live Solenopsis invicta)/number of live Solenopsis invicta in the control group*100%.
With `CSc1nn2c(c1C#N)N(CCBr)C(F)(C(F)(F)F)c1ccccc1-2` (stereo not drawn) [Compound A35], the mortality at 100 ppm came to 31%.

Still in this assay, the particulars now being: Solenopsis invicta, 24 h, read-out: Solenopsis invicta Mortality (%) 100 ppm 24 h, 100 ppm; 24 h; water test tube poison-feeding.
Turning to `CCNc1cc2n(n1)-c1cnccc1C(F)(CC(F)(F)F)N2` (stereo not drawn) [Compound A37], the mortality at 100 ppm is 20%.

As to `C=CCN(CC)c1cc2n(n1)-c1cnccc1C(F)(CC(F)(F)F)N2` (stereo not drawn) [Compound A38], the mortality at 100 ppm amounted to 26%.

`CC(=O)Nc1cc2n(n1)-c1cnccc1C(F)(CC(F)(F)F)N2` (stereo not drawn) [Compound A39]: the mortality at 100 ppm came out at 24%.

For the compound `CNC(=O)Nc1cc2n(n1)-c1cnccc1C(F)(CC(F)(F)F)N2` (stereo not drawn) [Compound A41], the mortality at 100 ppm came out at 24%.

`CS(=O)(=O)Nc1cc2n(n1)-c1cnccc1C(F)(CC(F)(F)F)N2` (stereo not drawn) [Compound A42]: the mortality at 100 ppm came to 44%.

In the case of `C=CC1(CCl)Nc2c(Br)c(C#N)nn2-c2c(Cl)cc(C(F)(F)F)cc21` (stereo not drawn) [Compound C5], the mortality at 100 ppm stood at 34%.

Turning to `C=CC1(CC(F)(F)F)Nc2c(Br)c(C#N)nn2-c2c(Cl)cc(C(F)(F)F)cc21` (stereo not drawn) [Compound C6], the mortality at 100 ppm is 44%.

For the compound `C=CC1(C(F)(F)F)Nc2c(Br)c(C#N)nn2-c2c(Cl)cc(C(F)(F)F)cc21` (stereo not drawn) [Compound C7], the mortality at 100 ppm is 38%.

Staying with this assay, now noted: Solenopsis invicta, 72 h, read-out: Solenopsis invicta Mortality (%) 100 ppm 72 h.
As for `CSc1nn2c(c1C#N)N(CCBr)C(F)(C(F)(F)F)c1ccccc1-2` (stereo not drawn) [Compound A35], the mortality at 100 ppm amounted to 99%.

Still in this assay, the particulars now being: Solenopsis invicta, 72 h, read-out: Solenopsis invicta Mortality (%) 100 ppm 72 h, 100 ppm; 72 h; water test tube poison-feeding.
For `CCNc1cc2n(n1)-c1cnccc1C(F)(CC(F)(F)F)N2` (stereo not drawn) [Compound A37], the mortality at 100 ppm turned out to be 100%.

As to `C=CCN(CC)c1cc2n(n1)-c1cnccc1C(F)(CC(F)(F)F)N2` (stereo not drawn) [Compound A38], the mortality at 100 ppm came out at 93%.

Turning to `CC(=O)Nc1cc2n(n1)-c1cnccc1C(F)(CC(F)(F)F)N2` (stereo not drawn) [Compound A39], the mortality at 100 ppm worked out at 100%.

On to `CNC(=O)Nc1cc2n(n1)-c1cnccc1C(F)(CC(F)(F)F)N2` (stereo not drawn) [Compound A41], for which the mortality at 100 ppm worked out at 100%.

On to `CS(=O)(=O)Nc1cc2n(n1)-c1cnccc1C(F)(CC(F)(F)F)N2` (stereo not drawn) [Compound A42], for which the mortality at 100 ppm is 100%.

Regarding `C=CC1(CCl)Nc2c(Br)c(C#N)nn2-c2c(Cl)cc(C(F)(F)F)cc21` (stereo not drawn) [Compound C5], the mortality at 100 ppm came out at 100%.

Regarding `C=CC1(CC(F)(F)F)Nc2c(Br)c(C#N)nn2-c2c(Cl)cc(C(F)(F)F)cc21` (stereo not drawn) [Compound C6], the mortality at 100 ppm stood at 100%.

For the compound `C=CC1(C(F)(F)F)Nc2c(Br)c(C#N)nn2-c2c(Cl)cc(C(F)(F)F)cc21` (stereo not drawn) [Compound C7], the mortality at 100 ppm worked out at 100%.
